From patent US20060200330A1, “Methods and systems for modeling and simulating biochemical pathways” (KOREA INSTITUTE OF SCIENCE AND TECHNOLOGY, priority 2005, published 2006)

Assays:
MAPK pathway = settings: cited from earlier work; for effect on ERK activation, as reported: literature report
ERK = assay: Western blot of ERK activation (anti-diphosphorylated ERK) in PC12 cells; type: cell-based; settings: PC12 cells, PD09859 10 μM or U0126 0.01-10 μM, 100 ng/ml EGF or NGF for 5 min
Method: (§1) In order to confirm the simulation, PC12 cells treated with EGF (100 ng/ml) were used to measure the time data tracking the activation levels of MEK and ERK, respectively. […] Western blot analysis was performed as follows. PC12 cells were treated with 100 ng/ml EGF for 0 to 120 min. Dissolved protein samples were reacted by using anti-phosphorylated MEK antibodies and anti-diphosphorylated ERK antibodies. Then, the resultant was reacted with anti-HRP (horse radish peroxidase)-conjugated secondary antibodies and confirmed the presence of a band via ECL chemoluminscence.
(§2) PC12 cells treated with EGF or nerve growth factor (NGF) were examined to evaluate the efficacies of PD09859 (10 μM) and U0126 (0.01-10 μM) in respect of MEK and ERK activation. Western blot analysis was performed as follows. PC12 cells treated with PD09859 and U0126 were treated with 100 ng/ml of EGF or NGF for 5 min. Then, the resulting protein sample was separated by performing SDS/PAGE, and then blotted by using anti-phosphorylated MEK and anti-diphosphoryated ERK antibodies. Again, the resultant was blotted by using anti-HRP (horseradish peroxidase) conjugated secondary antibodies and identified in bands by ECL chemo-luminescence.

MEK = assay: Western blot of MEK activation (anti-phosphorylated MEK) in PC12 cells; type: cell-based; settings: PC12 cells, U0126 0.01-10 μM, 100 ng/ml EGF or NGF for 5 min
Method: as §1, §2

| Structure (SMILES) | effect on ERK activation, as reported (MAPK pathway) | ERK activation / intracellular ERK phosphorylation (ERK) | MEK activation (MEK) | inhibition of MAPK pathway compared with the other inhibitor (MAPK pathway; U0126 versus PD09859, literature report) |
| --- | --- | --- | --- | --- |
| COc1cccc(-c2cc(=O)c3ccccc3o2)c1N [PD98059] | suppress ERK activation | not suppressed |  |  |
| N#CC(=C(/N)Sc1ccccc1N)/C(C#N)=C(\N)Sc1ccccc1N [U0126] | suppress ERK activation | suppressed by the MEK activity dose-dependently | not suppressed | more effective and specific |
